Tests used:
ACE-2 [1] = assay: ACE-2 mRNA expression in Calu-3, RT real-time PCR; type: cell-based, human; conditions: Calu-3, 50 to 1,000 uM, 24 hr pre-treatment
Protocol: (§1) To quantify the human gene expression, Calu-3 seeded in a 12-well plate (220,000 cells) were stimulated with 100 uM, 500 uM and 1000 uM Carnitine alone for 24 h. RNA was extracted using TRIzol (Qiagen) as per standard protocol and total RNA was reverse transcribed using SuperScript II RT (Invitrogen). Expression levels of ACE-2 and TMPRSS2 were evaluated by SYBR real-time PCR using gene-specific primers as previously reported (Ma et al., Eye 2020;34:1212). GAPDH was used as an internal normalizer. […] Fold change in expression relative to that in untreated cells was determined using the standard ddCt method.

C-Reactive Protein (CRP) = assay: Human study, serum ELISA, CRP; type: in vivo
Protocol: A human study was run with a total of 80 healthy male and female subjects ranging from 21 to 65 years of age, who were active (i.e. 30 minutes per day of moderate activity, 3 days per week) are randomized into two groups. […] Seventy-three subjects completed the trial and biomarker data were analyzed from the sera of the 73 completers. Sera were collected for analysis of C-Reactive Protein (CRP), ACE 1, ACE 2, TMPRSS 2, the Tumor Necrosis Factor alpha (TNF-alpha), and Furin at baseline in the beginning of the trial, at week 5 and 48 hr after an exercise challenge as described (Clinicaltrials.gov NCT04420377). The exercise challenge serves as surrogate to the inflammation stimulus.
To obtain human sera, venous blood was extracted by venipuncture of the antecubital vein using a 21-gauge syringe and collected into a 10 mL EDTA vacutainer tube (BD Vacutainer®, Becton, Dickinson and Company, Franklin Lakes, NJ) by a certified phlebotomist. […] Human ACE-1, ACE-2, TMPRSS2, Furin, CRP and TNF-alpha protein levels were assessed using commercially available ELISA kits, according the manufacturer recommendations, ACE-1 (R&D systems Inc., Minneapolis, MN, USA), ACE-2 (RayBiotech inc., Peachtree Corners, GA), TMPRSS2 (Novus Biologicals, Littleton, CO), CRP (R&D Systems Inc., Minneapolis, MN), TNF-alpha (Novus Biologicals, Littleton, CO), and Furin (Sigma Aldrich, St. Louis, MO). […]

ACE-2 [2] = assay: Rat plasma serum ELISA, ACE-2; type: in vivo; conditions: exercised rats, FIG. 5B
ACE-1 = ACE-1 protein and mRNA in rat lung tissue; type: in vivo; conditions: exercised rats
From the text: After a week of the adaptation period, the rats were divided into eight equal groups containing seven rats each. The initial body weights of the rats were similar in all the groups (214.53 grams ± 4.67; P > 0.05).
Groups 1 and 2 were not subjected to an exercise routine. Groups 3-8 were subjected to an exercise regimen consisting of a week training period with an incremental exercise capacity described below. After the week training period the exercise regimen followed was each rat in Groups 3-8 were subjected to 6 weeks of running at 25 m/min during 45 min […]. […] These correspond to 0, 250, 500, 1000, 2000 and 4000 mg per day for humans, respectively.
To determine the protein accumulation in the liver, muscle and lung samples, a Western Blotting test was used. Each of the tissue samples of the same group were pooled, homogenized, and sonicated in lysis buffer supplemented with 1X protease and phosphatase inhibitor cocktail (#5872, Cell Signaling). Total protein content was detected with Qubit 2.0 Fluorometer according to the manufacturer’s protocol (Invitrogen, Life Technologies Corporation, Carlsbad, CA, USA). […] Protein levels were analyzed densitometrically using an image analysis system (Image J; National Institute of Health, Bethesda, MD, USA), corrected with values determined on β-actin blots and expressed as relative values compared with the control group. […]

TMPRSS2 = TMPRSS2 mRNA expression in Calu-3, RT real-time PCR; type: cell-based, human; conditions: 24 hr
Protocol: as §1

Question: Which “ACE-2 mRNA levels” value (ACE-2 [1]) does the source give for `C[N+](C)(C)C[C@H](O)CC(=O)[O-]` [L-carnitine] here?
Answer: statistically significant downregulation

Question: And the “plasma CRP concentration, mean diff Group A versus Group B” value (C-Reactive Protein (CRP); at 48 hr-Post, p<0.005)?
Answer: -0.55 mg/L

Question: And the “serum CRP levels” value (C-Reactive Protein (CRP); from baseline after 5 weeks of supplementation, compared to placebo group)?
Answer: significantly lower

Question: What about the “serum ACE-2” value (ACE-2 [2]) of the same compound?
Answer: reduction

Question: What about the “ACE-1 mRNA levels” value (ACE-1; compared to the exercise control, without reaching the control levels) of the same compound?
Answer: increased

Question: And the ACE-1 protein levels (ACE-1; lung, FIG. 6A, significantly lower than the baseline control levels)?
Answer: increase

Question: What about the “TMPRSS2 mRNA decrease” value (TMPRSS2; Calu-3, 500 uM) of the same compound?
Answer: at least 75%

Question: What about the “TMPRSS2 mRNA increase” value (TMPRSS2; Calu-3, between 50-100 uM) of the same compound?
Answer: 1.5-4 fold

Reference: US20230346735A1, “Nutritional Composition Comprising Carnitine and Method for Treating or Preventing an Infection in a Mammal” (priority 2020, published 2023)
